# In patent US20150031892A1, “SPHINGOLIPID METABOLITE MIMETICS” (Zhejiang University, priority 2012, published 2015):
# How the values were obtained:
# Format in all cases: cell-based
# MCF-7 = assay: MTT cytotoxicity assay, MCF-7 (breast cancer); settings: Homo sapiens, MCF7; Breast Cancer MCF-7, MTT
# Procedure: (§1) Cell survival after exposure to the sphingolipid metabolite mimetics was examined by MTT cytotoxicity assay. HepG2, A431, HeLa, MCF-7 and SA cells (7000 cells/well) were seeded in each well of a 96-well plate for 24 h. New medium was added to give final concentrations of 0 to 200 μM of the sphingolipid metabolite mimetics. Then, 50 μl of 1 mg/ml 3-(4,5-dimethylthiazol-2-yl)-2,5-diphenyltetrazolium bromide (MTT, Sigma-Aldrich Chemical) was added to each well for 4 h incubation at 37° C. The purple formazan formed was then solubilized by DMSO and absorbance at 570 nm was read by a microplate reader (Molecular Devices, Sunnyvale, Calif.).
# HepG2 = assay: MTT cytotoxicity assay, HepG2 (liver cancer); settings: Homo sapiens
# Procedure: as §1
# SW480 = assay: MTT cytotoxicity assay, SW480 (colon cancer); settings: Homo sapiens
# SiHa = assay: MTT cytotoxicity assay, SiHa (ovarian cancer as headed); settings: Homo sapiens, Cervical Cancer SiHa
# SW620 = assay: MTT cytotoxicity assay, SW620 (colon cancer); settings: Homo sapiens, SW-620
# A431 = assay: MTT cytotoxicity assay, A431 (squamous carcinoma); settings: Homo sapiens, A-431
# Procedure: as §1
# SA = assay: MTT cytotoxicity assay, SA (pancreatic cancer as headed)
# Procedure: as §1
Structure (SMILES),IC50 (MCF-7),IC50 (HepG2),IC50 (SW480),IC50 (SiHa),IC50 (SW620),IC50 (A431),IC50 (SA)
"C/C=C/C=C/C(=O)N[C@H](C(=O)NCCCCCCCCCCCCCCCCCC)C(C)O (stereo in doubt) [NZJU12, (2E,4E)-N-((2S,3R)-3-hydroxy-1-oxo-1-(octadecylamino)butan-2-yl)-2,4-hexadienoic acid amide]",79.6 ± 2.34 µM,284 ± 8.3 µM,196 µM,> 200 µM,≥ 200 µM,187 ± 2.41 µM,> 200 µM
"CCCCCCCCCCCCCCCCCCNC(=O)[C@@H](N)[C@@H](C)O [NZJU4, (2S,3R)-2-Amino-3-hydroxy-N-octadecylbutanamide]",27.4 ± 1.8 µM,44.5 ± 3.49 µM,27.5 ± 3.03 µM,39.5 ± 0.88 µM,21.4 ± 1.24 µM,21.3 ± 1.72 µM,–
"C/C=C/C=C/C(=O)N[C@H](C(=O)NCCCCCCCCCCCC)[C@@H](C)O [NZJU10, (2E,4E)-N-((2S,3R)-3-hydroxy-1-oxo-1-(dodecylamino)butan-2-yl)-2,4-hexadienoic acid amide]",37.1 ± 4.11 µM,> 400 µM,> 200 µM,> 200 µM,≥ 200 µM,171 ± 12.1 µM,189 ± 12.2 µM
"C/C=C/C=C/C(=O)N[C@H](C(=O)NCCCCCCCCCCCCCC)[C@@H](C)O [NZJU11, (2E,4E)-N-((2S,3R)-3-hydroxy-1-oxo-1-(tetradecylamino)butan-2-yl)-2,4-hexadienoic acid amide]",27.76 ± 0.14 µM,> 400 µM,> 200 µM,> 200 µM,≥ 200 µM,> 200 µM,184 ± 1.9 µM
"CCCCCCCCCCCCCCNC(=O)[C@@H](NC(=O)c1ccco1)[C@@H](C)O [NZJU14, N-((2S,3R)-3-hydroxy-1-oxo-1-(tetradecylamino)butan-2-yl)-Furan-2-carboxamide]",105 ± 5.03 µM,> 400 µM,110 ± 5.03 µM,127 ± 7.41 µM,≥ 200 µM,190 ± 6.86 µM,148 ± 11.6 µM
"CCCCCCCCCCCCCCCCCCNC(=O)[C@@H](NC(=O)c1ccco1)[C@@H](C)O [NZJU15, N-((2S,3R)-3-hydroxy-1-oxo-1-(octadecylamino)butan-2-yl)-Furan-2-carboxamide]",21.4 ± 2.4 µM,42.3 ± 3.73 µM,24.4 ± 0.7 µM,13.3 ± 1.05 µM,–,19.9 ± 0.45 µM,52.6 ± 6.02 µM
"CCCCCCCCCCCCCCNC(=O)[C@@H](NC(=O)c1ccccc1)[C@@H](C)O [NZJU17, N-((2S,3R)-3-hydroxy-1-oxo-1-(tetradecylamino)butan-2-yl)-benzamide]",24.8 ± 6.75 µM,54.2 ± 3.95 µM,≥ 200 µM,> 200 µM,≥ 200 µM,118 ± 9.09 µM,56 ± 7.43 µM
"CCCCCCCCCCCCCCCCCCNC(=O)[C@@H](NC(=O)c1ccccc1)[C@@H](C)O [NZJU18, N-((2S,3R)-3-hydroxy-1-oxo-1-(octadecylamino)butan-2-yl)-benzamide]",31.7 ± 6.55 µM,> 400 µM,36.47 ± 0.23 µM,38.2 ± 2.52 µM,≥ 200 µM,113 ± 7.87 µM,> 400 µM
"CCCCCCCCCCCCCC(=O)N[C@H](C(=O)Nc1ccccc1)[C@@H](C)O [NZJU19, N-((2S,3R)-3-Hydroxy-1-oxo-1-(benzamino)butan-2-yl)-tetradecyl acid amide]",> 400 µM,> 400 µM,> 200 µM,> 200 µM,≥ 200 µM,> 200 µM,> 200 µM
"CCCCCCCCCCCCNC(=O)[C@@H](NC(=O)/C=C/c1ccccc1)[C@@H](C)O [NZJU24, (E)-N-((2S,3R)-3-hydroxy-1-oxo-1-(dodecylamino)butan-2-yl)-3-phenyl acrylic acid amide]",> 200 µM,> 200 µM,> 200 µM,> 200 µM,≥ 200 µM,> 200 µM,154.8 ± 1.16 µM
"CCCCCCCCCCCCCCNC(=O)[C@@H](NC(=O)/C=C/c1ccccc1)[C@@H](C)O [NZJU25, (E)-N-((2S,3R)-3-hydroxy-1-oxo-1-(tetradecylamino)butan-2-yl)-3-phenyl acrylic acid amide]",64.6 ± 4.54 µM,150 ± 4.37 µM,86.9 µM,35.8 ± 0.68 µM,≥ 200 µM,64.9 ± 4.87 µM,80.9 ± 1.9 µM
"CCCCCCCCCCCCCCCCCCNC(=O)[C@@H](NC(=O)c1nccc2ccccc12)[C@@H](C)O [NZJU32, N-((2S,3R)-3-hydroxy-1-oxo-1-(octadecylamino)butan-2-yl)-isoquinoline-1-carboxamide]",30.8 ± 0.67 µM,96.9 ± 6.77 µM,30.7 µM,51.2 ± 3.46 µM,136 ± 13.3 µM,44.1 ± 2.02 µM,49.1 ± 4.72 µM
"CCCCCCCCCCCCCCCCCCNC(=O)[C@@H](NC(=O)c1cc2ccccc2o1)[C@@H](C)O [NZJU38, N-((2S,3R)-3-hydroxy-1-oxo-1-(octadecylamino)butan-2-yl)-benzofuran-2-carboxamide]",126 ± 7.19 µM,> 200 µM,> 200 µM,> 200 µM,–,78.8 ± 6.99 µM,162 ± 4.55 µM
"CCCCCCCCNC(=O)[C@@H](NC(=O)c1nccc2ccccc12)[C@@H](C)O [NZJU43, N-((2S,3R)-3-hydroxy-1-oxo-1-(octylamino)butan-2-yl)-isoquinoline-1-carboxamide]",63.2 ± 4.73 µM,88.2 ± 1.92 µM,–,66 ± 5.48 µM,67.75 ± 0.099 µM,26.9 ± 2.81 µM,22.9 ± 2.59 µM
"CCCCCCCCCCCCNC(=O)[C@@H](NC(=O)c1cc2ccccc2n1C)[C@@H](C)O [NZJU50, N-((2S,3R)-3-hydroxy-1-oxo-1-(dodecylamino)butan-2-yl)-(N-methyl)indole-2-carboxamide]",–,> 200 µM,36 ± 2.87 µM,> 200 µM,–,169 ± 14.7 µM,31.3 ± 1.14 µM
"CCCCCCCCCCCCCCCCCCNC(=O)[C@@H](NC(=O)c1cc2ccccc2n1C)[C@@H](C)O [NZJU52, N-((2S,3R)-3-hydroxy-1-oxo-1-(octadecylamino)butan-2-yl)-(N-methyl)indole-2-carboxamide]",–,> 200 µM,36 ± 3.23 µM,113 ± 12 µM,–,61 ± 1.82 µM,36.37 ± 0.19 µM
"CCCCCCCCCCCCNC(=O)[C@@H](NC(=O)c1ccc2cc(O)ccc2c1)[C@@H](C)O [NZJU53, N-((2S,3R)-3-hydroxy-1-oxo-1-(dodecylamino)butan-2-yl)-6-hydroxylnaphthoic-2-carboxamide]",–,43 ± 4.04 µM,58.1 ± 4.37 µM,27.4 ± 2.07 µM,–,33 ± 3.55 µM,37.1 ± 1.17 µM
"CCCCCCCCCCCCCCNC(=O)[C@@H](NC(=O)c1ccc2cc(O)ccc2c1)[C@@H](C)O [NZJU54, N-((2S,3R)-3-hydroxy-1-oxo-1-(tetradecylamino)butan-2-yl)-6-hydroxylnaphthoic-2-carboxamide]",–,23.6 ± 1.16 µM,33.2 ± 1.08 µM,30.1 ± 3.01 µM,–,24.4 ± 1.27 µM,24.2 ± 0.83 µM
"CCCCCCCCCCCCCCCCCCNC(=O)[C@@H](NC(=O)c1ccc2cc(O)ccc2c1)[C@@H](C)O [NZJU55, N-((2S,3R)-3-hydroxy-1-oxo-1-(octadecylamino)butan-2-yl)-6-hydroxylnaphthoic-2-carboxamide]",–,73.7 ± 5.21 µM,160 ± 5.86 µM,48.1 ± 4.67 µM,–,85.8 ± 1.73 µM,84.8 ± 4.34 µM
"CCCCCCCCCCCCNC(=O)[C@@H](NS(=O)(=O)c1ccc(C)cc1)[C@@H](C)O [NZJU56, N-((2S,3R)-3-hydroxy-1-oxo-1-(dodecylamino)butan-2-yl)-4-methylbenzsulfonamide]",–,25.8 ± 0.52 µM,39.9 ± 2.54 µM,31.6 ± 4.56 µM,–,25.2 ± 0.99 µM,27.2 ± 0.99 µM
"CCCCCCCCCCCCCCCCCCNC(=O)[C@@H](NS(=O)(=O)c1ccc(C)cc1)[C@@H](C)O [NZJU58, N-((2S,3R)-3-hydroxy-1-oxo-1-(octadecylamino)butan-2-yl)-4-methylbenzsulfonamide]",–,75.8 ± 9.46 µM,> 200 µM,29.8 ± 2.23 µM,–,34 ± 1.03 µM,47.9 ± 5.2 µM
"CCCCCCCCCCCCNC(=O)[C@@H](NS(=O)(=O)c1cccs1)[C@@H](C)O [NZJU59, N-((2S,3R)-3-hydroxy-1-oxo-1-(dodecylamino)butan-2-yl)-2-thiophene sulfonamide]",–,25.9 ± 1.21 µM,41 ± 2.25 µM,30.9 ± 1.28 µM,–,22 ± 0.86 µM,20.1 ± 1.65 µM
"CCCCCCCCCCCCCCCCCCNC(=O)[C@@H](NS(=O)(=O)c1cccs1)[C@@H](C)O [NZJU61, N-((2S,3R)-3-hydroxy-1-oxo-1-(octadecylamino)butan-2-yl)-2-thiophene sulfonamide]",–,> 200 µM,> 200 µM,> 200 µM,–,> 200 µM,> 200 µM
"CCCCCCCCCCCCCCCCCCNC(=O)[C@@H](NS(=O)(=O)c1ccc2ccccc2c1)[C@@H](C)O [NZJU63, N-((2S,3R)-3-hydroxy-1-oxo-1-(octadecylamino)butan-2-yl)-2-naphthylsulfonamide]",–,19.8 ± 3.12 µM,69.1 ± 9.67 µM,19.9 ± 3.31 µM,–,23.7 ± 1.46 µM,21.2 ± 0.81 µM
"CCCCCCCCCCCCCCNC(=O)[C@@H](NC(=O)C1=C[C@H](O)[C@H](O)[C@@H](O)C1)[C@@H](C)O [NZJU64, (3S,4R,5S)-3,4,5-trihydroxy-N-((2S,3R)-3-hydroxy-1-oxo-1-(tetradecylamino)butan-2-yl)cyclohex-1-enecarboxamide]",–,29.9 ± 2.81 µM,47.8 ± 3.43 µM,24.6 ± 2.04 µM,–,23.1 ± 2.97 µM,33.7 ± 1.28 µM
